Assay results published in patent publication US20170166598A1, “HETEROARYL COMPOUNDS FOR KINASE INHIBITION” (ARIAD PHARMACEUTICALS, INC., priority 2014, published 2017).

Columns and labels:
Assay type in all cases: cell-based
[1] = molecular target: T1, human EGFR E746-A750 deletion and T790M Mutation (Homo sapiens, UniProt P00533, DEL746-750/T790M); assay: Ba/F3-EGFR-Del/T790M cell anti-proliferative assay (CellTiter 96 MTS, 72 h); conditions: Ba/F3-EGFR-Del/T790M cells
T1 construct: expressed in transfected cells; host or cells: Ba/F3 (murine pro-B) cells transduced with lentivirus from pLVX-IRES puro
T1 sequence (P00533 with tags, fused parts or gaps DEL746-750/T790M): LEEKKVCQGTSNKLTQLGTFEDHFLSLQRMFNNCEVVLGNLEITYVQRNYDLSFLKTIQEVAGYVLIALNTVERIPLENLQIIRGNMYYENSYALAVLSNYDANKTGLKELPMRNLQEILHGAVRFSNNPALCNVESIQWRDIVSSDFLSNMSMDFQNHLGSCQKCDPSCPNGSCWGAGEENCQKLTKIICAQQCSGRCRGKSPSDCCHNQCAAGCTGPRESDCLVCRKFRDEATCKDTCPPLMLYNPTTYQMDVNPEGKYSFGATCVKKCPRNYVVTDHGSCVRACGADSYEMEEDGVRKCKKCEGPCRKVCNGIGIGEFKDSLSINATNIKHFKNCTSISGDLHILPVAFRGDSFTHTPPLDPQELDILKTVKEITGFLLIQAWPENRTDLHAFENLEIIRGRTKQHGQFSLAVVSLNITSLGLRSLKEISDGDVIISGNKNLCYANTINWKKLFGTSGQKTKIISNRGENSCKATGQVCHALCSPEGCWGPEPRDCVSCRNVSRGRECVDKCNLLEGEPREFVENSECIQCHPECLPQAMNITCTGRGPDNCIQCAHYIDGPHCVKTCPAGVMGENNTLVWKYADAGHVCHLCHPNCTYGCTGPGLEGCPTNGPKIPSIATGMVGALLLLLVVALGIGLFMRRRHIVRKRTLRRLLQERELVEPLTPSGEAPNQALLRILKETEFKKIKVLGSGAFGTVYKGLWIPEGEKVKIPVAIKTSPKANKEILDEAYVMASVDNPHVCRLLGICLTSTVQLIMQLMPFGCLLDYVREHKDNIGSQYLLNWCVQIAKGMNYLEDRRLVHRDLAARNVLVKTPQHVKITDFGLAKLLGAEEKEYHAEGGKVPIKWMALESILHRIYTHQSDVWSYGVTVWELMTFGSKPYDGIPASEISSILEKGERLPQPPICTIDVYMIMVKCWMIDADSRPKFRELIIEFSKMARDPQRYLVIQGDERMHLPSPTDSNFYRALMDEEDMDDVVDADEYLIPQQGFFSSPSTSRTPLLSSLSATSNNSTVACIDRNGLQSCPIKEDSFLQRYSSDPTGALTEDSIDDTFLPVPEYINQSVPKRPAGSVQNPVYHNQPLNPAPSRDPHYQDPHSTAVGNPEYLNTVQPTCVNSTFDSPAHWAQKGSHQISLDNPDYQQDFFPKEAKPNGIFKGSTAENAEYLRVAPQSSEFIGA
Outline: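 Compound exposure: 72 h, 37 °C, 4-fold series topping at 10,000 nM. Target cells are Ba/F3 transduced with EGFR exon 19 deletion plus T790M, selected by puromycin and IL-3 withdrawal. Viable cell number inferred from MTS metabolic conversion, A490 read 2 h after reagent addition.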

[2] = molecular target: T2, Her2 exon 20 YVMA insertion (A775_G776ins YVMA) (Homo sapiens, UniProt P04626, INS775YVMA); assay: Ba/F3-Her2 Exon20 YVMA cell anti-proliferative assay (CellTiter 96 MTS, 72 h); conditions: Ba/F3-Her2 Exon20 YVMA cells
T2 construct: expressed in transfected cells; host or cells: Ba/F3 (murine pro-B) cells transduced with lentivirus from pLVX-IRES puro
Outline: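 Anti-proliferation: compound series (top 10,000 nM, 4-fold steps) was applied to Ba/F3-Her2 Exon20 YVMA cells grown without IL-3 for 72 h. Viability was read colorimetrically (CellTiter 96 Aqueous One, A490, 2 h reagent incubation).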

[3] = molecular target: T3, human EGFR L858R and T790M double mutation (Homo sapiens, UniProt P00533, L858R/T790M); assay: Ba/F3-EGFR L858R/T790M cell anti-proliferative assay (CellTiter 96 MTS, 72 h); conditions: Ba/F3-EGFR L858R/T790M cells
T3 construct: expressed in transfected cells; host or cells: Ba/F3 (murine pro-B) cells transduced with lentivirus from pLVX-IRES puro
T3 sequence (P00533 25-1210 T790M/L858R): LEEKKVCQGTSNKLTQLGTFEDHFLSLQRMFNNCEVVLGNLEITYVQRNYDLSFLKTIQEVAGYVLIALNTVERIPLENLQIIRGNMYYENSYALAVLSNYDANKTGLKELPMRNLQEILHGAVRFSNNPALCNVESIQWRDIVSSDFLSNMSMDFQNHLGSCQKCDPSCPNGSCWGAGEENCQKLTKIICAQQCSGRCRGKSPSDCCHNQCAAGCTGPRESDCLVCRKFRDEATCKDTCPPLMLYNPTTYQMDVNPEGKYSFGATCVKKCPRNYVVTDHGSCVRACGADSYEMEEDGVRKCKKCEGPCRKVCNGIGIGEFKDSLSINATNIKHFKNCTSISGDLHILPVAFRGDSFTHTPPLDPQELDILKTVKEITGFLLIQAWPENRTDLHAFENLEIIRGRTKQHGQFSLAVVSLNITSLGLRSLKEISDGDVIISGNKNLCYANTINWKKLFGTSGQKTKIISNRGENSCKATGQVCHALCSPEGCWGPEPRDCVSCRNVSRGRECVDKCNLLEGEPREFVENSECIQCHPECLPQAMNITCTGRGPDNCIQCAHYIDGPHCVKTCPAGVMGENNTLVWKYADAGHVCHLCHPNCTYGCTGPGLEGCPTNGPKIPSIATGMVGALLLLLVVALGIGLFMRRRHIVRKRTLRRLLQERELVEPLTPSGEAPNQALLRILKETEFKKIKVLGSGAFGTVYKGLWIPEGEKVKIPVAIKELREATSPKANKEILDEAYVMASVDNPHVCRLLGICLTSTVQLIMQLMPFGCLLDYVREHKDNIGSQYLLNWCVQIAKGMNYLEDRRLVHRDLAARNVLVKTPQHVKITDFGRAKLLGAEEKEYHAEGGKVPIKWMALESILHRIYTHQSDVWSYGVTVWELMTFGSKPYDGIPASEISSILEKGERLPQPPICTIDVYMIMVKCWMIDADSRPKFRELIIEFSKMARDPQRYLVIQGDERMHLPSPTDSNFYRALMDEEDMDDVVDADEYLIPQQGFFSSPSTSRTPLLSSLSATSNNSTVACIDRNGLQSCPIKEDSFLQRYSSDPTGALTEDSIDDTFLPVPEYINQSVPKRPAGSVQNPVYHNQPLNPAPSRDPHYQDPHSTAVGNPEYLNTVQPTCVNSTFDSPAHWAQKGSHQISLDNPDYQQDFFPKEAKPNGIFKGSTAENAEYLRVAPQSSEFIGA
Procedure: An expression vector, pLVX-IRES puro (Clontech) coding for human EGFR L858R and T790M double mutation, was transfected into HEK293 cells by the Trans-Lentiviral ORF Packaging System (Thermo Scientific), to produce virus encoding EGFR L858R and T790M double mutations. Ba/F3 (DSMZ) cells maintained in RPMI 1640 medium supplemented with 10% fetal bovine serum, 200 μM L-glutamine/l 200 μg/mL penicillin/200 μg/mL streptomycin (Life Technology) and 10 ng/mL IL-3 (R&D system), were infected by EGFR L858R and T790M double mutation virus and subsequently selected by puromycin (Life Technology) selection and IL-3 depletion. […] The anti-proliferative activity of compounds was determined as follows: BaF3-EGFR L858R/T790M cells seeded in 96 well plates (2500 cells/well) were treated with test compound (dissolved in DMSO) at a series of concentrations (4-fold dilution, top concentration: 10,000 nM). The plates were incubated for 72 h in a 37° C. incubator with 5% CO2, and the number of viable cells in each well were measured indirectly by CellTiter 96® Aqueous One Solution Cell Proliferation Assay (Promega; this assay is a colorimetric method for determining the number of viable cells through measurement of their metabolic activity by detection of enzymatic conversion of tetrazolium salts into blue formazan derivatives). Reagent (20 μL) was added into each well, and the plates were returned to the incubator for 2 h. The absorbance in each well was then measured at 490 nm using an Envision plate reader (Perkin Elmer).

[4] = molecular target: T4, human EGFR exon 20 insertion NPG (H773_V774insNPG) (Homo sapiens, UniProt P00533, INS772GNP); assay: Ba/F3-EGFR-Exon20-NPG cell anti-proliferative assay (CellTiter 96 MTS, 72 h); conditions: Ba/F3-EGFR-Exon20-NPG cells
T4 construct: expressed in transfected cells; host or cells: Ba/F3 (murine pro-B) cells transduced with lentivirus from pLVX-IRES puro
T4 sequence (P00533 with tags, fused parts or gaps INS772GNP): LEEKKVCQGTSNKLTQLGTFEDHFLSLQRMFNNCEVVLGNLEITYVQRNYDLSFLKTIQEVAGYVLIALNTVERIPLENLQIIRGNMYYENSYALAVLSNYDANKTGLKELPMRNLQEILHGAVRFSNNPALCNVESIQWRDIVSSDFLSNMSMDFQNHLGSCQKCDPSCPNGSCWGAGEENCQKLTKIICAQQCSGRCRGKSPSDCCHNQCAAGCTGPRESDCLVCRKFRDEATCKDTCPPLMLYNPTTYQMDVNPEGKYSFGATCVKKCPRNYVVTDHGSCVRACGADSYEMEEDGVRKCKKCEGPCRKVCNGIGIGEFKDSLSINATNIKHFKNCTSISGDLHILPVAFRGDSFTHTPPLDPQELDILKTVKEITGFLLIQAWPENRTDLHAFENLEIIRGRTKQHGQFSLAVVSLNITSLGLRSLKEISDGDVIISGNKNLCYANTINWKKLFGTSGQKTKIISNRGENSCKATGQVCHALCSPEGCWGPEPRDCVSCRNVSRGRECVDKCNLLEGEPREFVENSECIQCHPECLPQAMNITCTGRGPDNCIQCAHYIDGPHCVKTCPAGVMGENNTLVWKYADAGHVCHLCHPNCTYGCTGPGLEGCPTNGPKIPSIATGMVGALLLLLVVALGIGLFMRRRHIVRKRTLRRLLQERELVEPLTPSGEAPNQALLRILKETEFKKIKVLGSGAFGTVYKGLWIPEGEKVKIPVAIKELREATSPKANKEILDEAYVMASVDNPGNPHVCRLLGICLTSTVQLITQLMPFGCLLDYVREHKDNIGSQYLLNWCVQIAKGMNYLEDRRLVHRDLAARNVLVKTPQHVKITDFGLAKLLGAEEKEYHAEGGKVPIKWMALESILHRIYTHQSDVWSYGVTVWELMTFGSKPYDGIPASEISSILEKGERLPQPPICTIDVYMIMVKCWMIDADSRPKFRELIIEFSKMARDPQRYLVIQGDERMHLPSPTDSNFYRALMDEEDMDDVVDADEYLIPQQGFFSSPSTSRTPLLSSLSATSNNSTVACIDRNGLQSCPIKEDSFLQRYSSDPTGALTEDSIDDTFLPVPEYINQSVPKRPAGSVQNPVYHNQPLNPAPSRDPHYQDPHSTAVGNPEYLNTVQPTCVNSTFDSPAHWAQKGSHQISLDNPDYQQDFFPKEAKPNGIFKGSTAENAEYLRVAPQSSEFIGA
Outline: (§1)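 Viable-cell readout used absorbance at 490 nm of MTS-derived formazan, 2 h after reagent addition, following 72 h compound treatment at 37 °C, 5% CO2. Cells: puromycin-selected, IL-3-depleted Ba/F3 expressing EGFR exon 20 ASV or NPG; dosing 4-fold series from 10,000 nM.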

[5] = molecular target: T5, human EGFR exon 20 insertion ASV (V769_D770insASV) (Homo sapiens, UniProt P00533, INS769ASV); assay: Ba/F3-EGFR-Exon20-ASV cell anti-proliferative assay (CellTiter 96 MTS, 72 h); conditions: Ba/F3-EGFR-Exon20-ASV cells
T5 construct: expressed in transfected cells; host or cells: Ba/F3 (murine pro-B) cells transduced with lentivirus from pLVX-IRES puro
T5 sequence (P00533 with tags, fused parts or gaps INS769ASV): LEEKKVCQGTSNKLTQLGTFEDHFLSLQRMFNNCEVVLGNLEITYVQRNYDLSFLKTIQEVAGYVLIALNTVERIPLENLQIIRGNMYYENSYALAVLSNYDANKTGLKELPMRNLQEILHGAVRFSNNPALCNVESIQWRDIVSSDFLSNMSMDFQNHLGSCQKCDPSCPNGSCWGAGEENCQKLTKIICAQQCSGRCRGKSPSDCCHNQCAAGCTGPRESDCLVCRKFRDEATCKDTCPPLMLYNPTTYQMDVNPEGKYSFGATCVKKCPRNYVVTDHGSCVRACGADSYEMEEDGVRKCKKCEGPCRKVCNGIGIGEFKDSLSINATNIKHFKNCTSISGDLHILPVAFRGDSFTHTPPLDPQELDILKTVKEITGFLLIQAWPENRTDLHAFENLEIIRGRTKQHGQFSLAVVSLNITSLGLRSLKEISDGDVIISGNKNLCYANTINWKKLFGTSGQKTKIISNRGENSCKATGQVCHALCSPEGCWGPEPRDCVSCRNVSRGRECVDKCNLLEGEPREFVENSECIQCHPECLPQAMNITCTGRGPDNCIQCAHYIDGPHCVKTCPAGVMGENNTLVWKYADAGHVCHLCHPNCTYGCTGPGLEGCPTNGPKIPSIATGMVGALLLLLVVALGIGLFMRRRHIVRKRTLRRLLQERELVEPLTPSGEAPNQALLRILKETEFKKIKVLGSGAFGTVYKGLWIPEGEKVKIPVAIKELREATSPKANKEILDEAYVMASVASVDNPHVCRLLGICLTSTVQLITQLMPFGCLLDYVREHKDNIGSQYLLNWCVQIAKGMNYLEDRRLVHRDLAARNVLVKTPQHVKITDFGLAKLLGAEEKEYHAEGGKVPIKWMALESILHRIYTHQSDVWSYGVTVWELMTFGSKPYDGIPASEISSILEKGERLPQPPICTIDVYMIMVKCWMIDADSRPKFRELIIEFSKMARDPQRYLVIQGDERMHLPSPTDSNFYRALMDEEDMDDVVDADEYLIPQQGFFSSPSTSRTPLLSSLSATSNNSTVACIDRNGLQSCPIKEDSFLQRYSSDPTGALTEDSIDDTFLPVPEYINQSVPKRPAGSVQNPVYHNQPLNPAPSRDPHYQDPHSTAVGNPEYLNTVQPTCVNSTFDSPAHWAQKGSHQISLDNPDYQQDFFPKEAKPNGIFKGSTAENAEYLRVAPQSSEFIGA
Outline: as §1

Row | IC50 [2] [nM] | IC50 [4] [nM] | IC50 [5] [nM] | Structure (SMILES) | EGFR exon 19 deletion and exon 20 T790M mutation IC50 [1] | EGFR exon 21 L858R and exon 20 T790M mutation IC50 [3]
1 | < 100 | < 100 | < 100 | C=CC(=O)Nc1cc(Nc2ncc(-c3nnc(C)o3)c(-c3cn4c5c(cccc35)CCC4)n2)c(OC)cc1N(C)CCN(C)C [Example 107] | A (IC50 value for the indicated mutant below about 100 nM) | A (IC50 value for the indicated mutant below about 100 nM)
2 | > 1000 | < 100 | 500 to 1000 | C=CC(=O)Nc1cc(Nc2ncc(C(=O)NCCO)c(-c3cn4c5c(cccc35)CCC4)n2)c(OC)cc1N(C)CCN(C)C [Example 48] | B (IC50 value for the indicated mutant between about 100 to about 500 nM) | C (IC50 value for the indicated mutant between greater than about 500 to about 1 μM)
3 | > 1000 | 100 to 500 | 500 to 1000 | C=CC(=O)Nc1cc(Nc2ncc(CCC(N)=O)c(-c3cn4c5c(cccc35)CCC4)n2)c(OC)cc1N(C)CCN(C)C [Example 40, N-(5-((5-(3-amino-3-oxopropyl)-4-(5,6-dihydro-4H-pyrrolo[3,2,1-ij]quinolin-1-yl)pyrimidin-2-yl)amino)-2-((2-(dimethylamino)ethyl)(methyl)amino)-4-methoxyphenyl)acrylamide] | A (IC50 value for the indicated mutant below about 100 nM) | B (IC50 value for the indicated mutant between about 100 to about 500 nM)
4 | > 1000 | > 1000 | > 1000 | C=CC(=O)Nc1cc(Nc2ncc(CCP(C)(C)=O)c(-c3cn4c5c(cccc35)CCC4)n2)c(OC)cc1N(C)CCN(C)C [Example 96] | D (IC50 value for the indicated mutant greater than about 1 μM) | D (IC50 value for the indicated mutant greater than about 1 μM)
5 | 100 to 500 | < 100 | 100 to 500 | C=CC(=O)Nc1cc(Nc2nccc(-c3cn4c5c(cccc35)CCC4)n2)c(OC)cc1N(C)CCNC [Example 83, N-(5-((4-(5,6-dihydro-4H-pyrrolo[3,2,1-ij]quinolin-1-yl)pyrimidin-2-yl)amino)-4-methoxy-2-(methyl(2-(methylamino)ethyl)amino)phenyl)acrylamide] | A (IC50 value for the indicated mutant below about 100 nM) | A (IC50 value for the indicated mutant below about 100 nM)

The next lines start with the compound.

Row | Structure (SMILES) | IC50 [2] [nM] | IC50 [4] [nM] | IC50 [5] [nM] | EGFR exon 19 deletion and exon 20 T790M mutation IC50 [1] | EGFR exon 21 L858R and exon 20 T790M mutation IC50 [3]
6 | C=CC(=O)Nc1cc(Nc2ncc(C(=O)NCCOC)c(-c3cn4c5c(cccc35)CCC4)n2)c(OC)cc1N(C)CCN(C)C [Example 47, 2-((5-acrylamido-4-((2-(dimethylamino)ethyl)(methyl)amino)-2-methoxyphenyl)amino)-4-(5,6-dihydro-4H-pyrrolo[3,2,1-ij]quinolin--yl)-N-(2-methoxyethyl)pyrimidine-5-carboxamide] | 500 to 1000 | < 100 | 100 to 500 | B (IC50 value for the indicated mutant between about 100 to about 500 nM) | C (IC50 value for the indicated mutant between greater than about 500 to about 1 μM)
7 | C=CC(=O)Nc1cc(Nc2ncc(Cl)c(-c3cn4c5c(cccc35)OCC4)n2)c(OC)cc1N(C)CCN(C)C [Example 76, N-(5-((5-chloro-4-(2,3-dihydro-[1,4]oxazino[2,3,4-hi]indol-6-yl)pyrimidin-2-yl)amino)-2-((2-(dimethylamino)ethyl)(methyl)amino)-4-methoxyphenyl)acrylamide] | 100 to 500 | < 100 | < 100 | A (IC50 value for the indicated mutant below about 100 nM) | A (IC50 value for the indicated mutant below about 100 nM)
8 | C=CC(=O)Nc1cc(Nc2ncc(CCC(C)(C)O)c(-c3cn4c5c(cccc35)CCC4)n2)c(OC)cc1N(C)CCN(C)C [Example 37, N-(5-((4-(5,6-dihydro-4H-pyrrolo[3,2,1-ij]quinolin-1-yl)-5-(3-hydroxy-3-methylbutyl)pyrimidin-2-yl)amino)-2-((2-(dimethylamino)ethyl)(methyl)amino)-4-methoxyphenyl)acrylamide] | 100 to 500 | < 100 | < 100 | A (IC50 value for the indicated mutant below about 100 nM) | B (IC50 value for the indicated mutant between about 100 to about 500 nM)
9 | C=CC(=O)Nc1cc(Nc2ncc(CCC3CCOC3)c(-c3cn4c5c(cccc35)CCC4)n2)c(OC)cc1N(C)CCN(C)C (centres unmarked) [Example 36, N-(5-((4-(5,6-dihydro-4H-pyrrolo[3,2,1-ij]quinolin-1-yl)-5-(2-(tetrahydrofuran-3-yl)ethyl)pyrimidin-2-yl)amino)-2-((2-(dimethylamino)ethyl)(methyl)amino)-4-methoxyphenyl)acrylamide] | 100 to 500 | < 100 | 100 to 500 | A (IC50 value for the indicated mutant below about 100 nM) | B (IC50 value for the indicated mutant between about 100 to about 500 nM)
10 | C=CC(=O)Nc1cc(Nc2nccc(-c3cn4c5c(cccc35)OCC4)n2)c(OC)cc1N(C)CCNC [Example 105, N-(5-((4-(2,3-dihydro-[1,4]oxazino[2,3,4-hi]indol-6-yl)pyrimidin-2-yl)amino)-4-methoxy-2-(methyl(2-(methylamino)ethyl)amino)phenyl)acrylamide] | 500 to 1000 | 100 to 500 | 100 to 500 | A (IC50 value for the indicated mutant below about 100 nM) | C (IC50 value for the indicated mutant between greater than about 500 to about 1 μM)
11 | C=CC(=O)Nc1cc(Nc2ncc(Cl)c(-c3cn4c5c(cccc35)CCC4)n2)c(OC)cc1N(C)CCN(C)C [Example 11, N-(5-((5-chloro-4-(5,6-dihydro-4H-pyrrolo[3,2,1-ij]quinolin-1-yl)pyrimidin-2-yl)amino)-2-((2-(dimethylamino)ethyl)(methyl)amino)-4-methoxyphenyl)acrylamide] | 100 to 500 | < 100 | < 100 | A (IC50 value for the indicated mutant below about 100 nM) | A (IC50 value for the indicated mutant below about 100 nM)
12 | C=CC(=O)Nc1cc(Nc2ncc(CCC(O)CC)c(-c3cn4c5c(cccc35)CCC4)n2)c(OC)cc1N(C)CCN(C)C (centres unmarked) [Example 38, N-(5-((4-(5,6-dihydro-4H-pyrrolo[3,2,1-ij]quinolin-1-yl)-5-(3-hydroxypentyl)pyrimidin-2-yl)amino)-2-((2-(dimethylamino)ethyl)(methyl)amino)-4-methoxyphenyl)acrylamide] | < 100 | < 100 | < 100 | A (IC50 value for the indicated mutant below about 100 nM) | A (IC50 value for the indicated mutant below about 100 nM)
13 | C=CC(=O)Nc1cc(Nc2ncc(C(N)=O)c(-c3cn4c5c(cccc35)CCC4)n2)c(OC)cc1N(C)CCN(C)C [Example 46, 2-((5-acrylamido-4-((2-(dimethylamino)ethyl)(methyl)amino)-2-methoxyphenyl)amino)-4-(5,6-dihydro-4H-pyrrolo[3,2,1-ij]quinolin-1-yl)pyrimidin-5-carboxamide] | 100 to 500 | < 100 | < 100 | A (IC50 value for the indicated mutant below about 100 nM) | A (IC50 value for the indicated mutant below about 100 nM)
